Test results published in patent US9290551B2, “Compounds for treating papilloma virus infection” (NanoVir, LLC, priority 2012, dated 2016).

Legend:
[1] = tested on: HPV18; experiment: HPV18 DNA levels in keratinocytes by real-time PCR; assay type: cell-based, Human papilloma virus; conditions: effective (pseudo) IC50
Procedure: (§1) Human keratinocytes, including those maintaining HPV episomes, are cultured on mitomycin C-treated J2 3T3 cells in media containing three parts Dulbecco's modified Eagle medium (DMEM) and one part F12 media, our modification of published methods (Rheinwald and Green, 1975). Media (E Media) is supplemented with 0.4 μg/mL hydrocortisone, 10 ng/mL cholera toxin, 5 μg/mL insulin, 24 μg/mL adenine, 5 μg/mL transferrin, […] (T3), 10 ng/mL epidermal growth factor (EGF), 1% penicillin-streptomycin, and 5% fetal bovine serum (FBS). All cells are passaged at 70% confluency at a split ratio of 1:5.
(§2) Polyamides for HPV 18 are dissolved at 10 mM in 100% DMSO and diluted with H2O to 1 mM. Polyamides are added to cells in E media at final concentrations of 0.1-10 μM, with final DMSO concentrations of 0.1%. As controls, cells are incubated with normal E media and E media containing the “vehicle” 0.1% DMSO. The HPV DNA levels are then quantified according to previously published procedures (Garner-Hamrick and Fisher, Virology, 301, 334-41, 2002). After incubation, cells are harvested from the plates by either trypsinization or direct lysis with proteinase K digestion buffer (PK buffer: 100 mM NaCl, 10 mM Tris pH 8, 25 mM EDTA, 0.5% SDS, 0.1 mg/mL proteinase K). Trypsinized cells are counted on a hemocytometer and pelleted by centrifugation. Episomal HPV is isolated by the Hirt method (Hirt, 1967) and cell pellets are lysed in 0.6% SDS with 10 mM EDTA. NaCl is next added to a final concentration of 1 M. Following an overnight incubation at 4° C., precipitates containing the chromosomal DNA are spun down and episomal DNA precipitated by the addition of isopropanol. Cells lysed directly in PK buffer are transferred to microfuge tubes and incubated at 50° C. for 2 h. Lysates are then extracted with phenol/chloroform/isoamyl alcohol and spun through a phase lock gel (Eppendorf, Hamburg, Germany). Total DNA is then precipitated with 0.3 M NaOAc and 2.5 vol. ethanol and resuspended in Tris-EDTA (TE) buffer.
Viral DNA levels are next quantified according to variations on our previously published methods (Garner-Hamrick and Fisher, Virology, 301, 334-41, 2002). Quantitative PCR is performed using Real-Time PCR technology on an ABI PRISM 7700 Sequence Detector. All primers and probes were designed using Primer Express 1.0 (ABI). For HPV 18, PCR primer-probe sets were designed within the L1 gene:
(§3) All primers and probes are synthesized and HPLC purified by Applied Biosystems (Foster City, Calif.). The HPV probes are labeled with the 5′ reporter dye FAM (6-carboxy-fluorescein) and the 3′ quencher dye TAMRA (6-carboxytetramethyl-rhodamine). A standard curve is generated using a range of 10^8 to 10 copies/reaction of cloned, genomic HPV31 or HPV18 DNA using the following formula: (1.82×10^15)(μg/μL stock DNA)/(length in base pairs)(2)=copies/μL stock DNA. PCR reactions contain final concentrations of 1× Universal Master Mix (PE Applied Biosystems), 200 nM of each primer, and 250 nM probe (PE Applied Biosystems) in a reaction volume of 25 μL. Each Hirt-isolated DNA sample is analyzed in triplicate reactions for episomal HPV. Copies/reaction are determined from the standard curve, and copies/cell determined according to the following formula: (copies/reaction)×(DNA dilution)/(total # cells)=copies/cell.

[2] = tested on: HPV 16; experiment: HPV 16 episome DNA levels in W12E cells by Q-PCR (Taqman); assay type: cell-based, Human papilloma virus; conditions: for effect on HPV viral DNA: comparison of 1037, distamycin A and cidofovir, FIG. 5; for IC50: effective (pseudo) IC50, 50% reduction in HPV DNA relative to vehicle (0.1% DMSO), read-out: HPV-16 IC50; for effect on absolute HPV 16 DNA levels: higher doses, in some experiments, FIG. 3
Procedure: Cells maintaining HPV 16 DNA were cultured for 72 hours in the presence of cidofovir, interferon γ or polyamide. Viral DNA was then quantified using real-time PCR and compared to vehicle (DMSO)-treated control cultures.
Compounds were initially tested for effects on HPV 16 episome DNA levels in W12E cells by Q-PCR (Taqman™) over 3 concentration ranges (0.1, 1 and 10 μM). W12E cells are a cervical keratinocyte cell line originally identified by M. Stanley (Cambridge University), and later optimized and provided by P. Lambert (U. of Wisconsin). […] In all cases (initial tests and follow-up IC50 tests), dose testing was performed in triplicate. […] Furthermore, all experiments were conducted in triplicate, multiple times. The data were then combined, pseudo or effective IC50 values calculated, and variance determined to reveal the fit of the data to the model and its reliability.
Keratinocytes that maintain HPV 16 episomes were treated with increasing concentrations of polyamides.

[3] = tested on: HPV31; experiment: HPV31 DNA levels in keratinocytes by real-time PCR; assay type: cell-based, Human papilloma virus; conditions: effective (pseudo) IC50
Procedure: as §1, §2
HPV31 primers-probe sets for PCR were also designed within the L1 gene:
as §3

[4] = tested on: Keratinocytes that maintain HPV 16 episomes; experiment: MTT cell viability assay; conditions: MTT assay; FIG. 2B, FIG. 5
Procedure: Cells were cultured for 5 days in the presence of polyamide; % Cell Viability=(OD590 drug/OD590 control)×100; n=3.
Solubilisation of the cells by the addition of a detergent results in the liberation of the crystals which are solubilized. The number of surviving cells is directly proportional to the level of the formazan product created. The color can then be quantified using a simple colorimetric assay. The results can be read on a multiwell scanning spectrophotometer (ELISA reader).
Cell viability was also assessed routinely with the MTT assay.

Compound | IC50 [1] [µM] | effect on HPV viral DNA [2] | IC50 [2] [µM] | effect on absolute HPV 16 DNA levels [2] | IC50 [3] [µM] | effect on cell viability [4]
CN(CCCN)CCCNC(=O)CCNC(=O)c1cc(NC(=O)c2cc(NC(=O)c3cc(NC(=O)CCNC(=O)c4cc(NC(=O)c5cc(NC(=O)c6cc(NC(=O)CCNC(=O)c7cc(NC(=O)c8cc(NC(=O)[C@H](N)CCNC(=O)c9cc(NC(=O)c%10cc(NC(=O)CCNC(=O)c%11cc(NC(=O)c%12nc(NC(=O)c%13cc(NC(=O)CCNC(=O)c%14cc(NC(=O)c%15cc(NC(=O)c%16nccn%16C)cn%15C)cn%14C)cn%13C)cn%12C)cn%11C)cn%10C)cn9C)cn8C)cn7C)cn6C)cn5C)cn4C)cn3C)cn2C)cn1C [Polyamide 1037, ImPPβPIPβPPγNH2PPβPPPβPPPβTa] | ≤ 0.1 | dramatic reduction of viral DNA levels | 0.1 to 1 | nearly complete elimination of detectable viral DNA | ≤ 0.1 | little impact on cell viability
CN(CCCN)CCCNC(=O)CCNC(=O)c1cc(NC(=O)c2cc(NC(=O)c3cc(NC(=O)CCNC(=O)c4cc(NC(=O)c5cc(NC(=O)c6cc(NC(=O)CCNC(=O)c7cc(NC(=O)c8cc(NC(=O)c9cc(NC(=O)CCCNC(=O)c%10cc(NC(=O)c%11cc(NC(=O)CCNC(=O)c%12cc(NC(=O)c%13cc(NC(=O)c%14cc(NC(=O)CCNC(=O)c%15cc(NC(=O)c%16cc(NC(=O)c%17cc(NC(=O)c%18nccn%18C)cn%17C)cn%16C)cn%15C)cn%14C)cn%13C)cn%12C)cn%11C)cn%10C)cn9C)cn8C)cn7C)cn6C)cn5C)cn4C)cn3C)cn2C)cn1C [Polyamide 1048, ImPPPβPPPβPPγPPPβPPPβPPPβTa] | 0.1 to 1 |  | 0.1 to 1 |  | 0.1 to 1 | 
CN(CCCN)CCCNC(=O)CCNC(=O)c1cc(NC(=O)c2cc(NC(=O)c3cc(NC(=O)CCNC(=O)c4cc(NC(=O)c5cc(NC(=O)c6cc(NC(=O)CCNC(=O)c7cc(NC(=O)c8cc(NC(=O)[C@@H](CCN)NC(=O)c9cc(NC(=O)c%10cc(NC(=O)CCNC(=O)c%11nc(NC(=O)c%12cc(NC(=O)c%13cc(NC(=O)CCNC(=O)c%14cc(NC(=O)c%15cc(NC(=O)c%16nccn%16C)cn%15C)cn%14C)cn%13C)cn%12C)cn%11C)cn%10C)cn9C)cn8C)cn7C)cn6C)cn5C)cn4C)cn3C)cn2C)cn1C [Polyamide 1049, ImPPβPPIβPPγNH2PPβPPPβPPPβTa] | 0.1 to 1 |  | 0.1 to 1 |  | ≥ 1 | 
CN(C)CCCNC(=O)CCNC(=O)c1cc(NC(=O)c2cc(NC(=O)c3cc(NC(=O)CCNC(=O)c4cc(NC(=O)c5cc(NC(=O)c6cc(NC(=O)CCNC(=O)c7cc(NC(=O)c8cc(NC(=O)[C@@H](CCN)NC(=O)c9cc(NC(=O)c%10cc(NC(=O)CCNC(=O)c%11nc(NC(=O)c%12cc(NC(=O)c%13cc(NC(=O)CCNC(=O)c%14cc(NC(=O)c%15cc(NC(=O)c%16nccn%16C)cn%15C)cn%14C)cn%13C)cn%12C)cn%11C)cn%10C)cn9C)cn8C)cn7C)cn6C)cn5C)cn4C)cn3C)cn2C)cn1C [Polyamide 1050, ImPPβPPIβPPγNH2PPβPPPβPPPβDp] | ≥ 1 |  | 0.1 to 1 |  | 0.1 to 1 | 
CN(C)CCCNC(=O)CCNC(=O)c1cc(NC(=O)c2cc(NC(=O)c3cc(NC(=O)CCNC(=O)c4cc(NC(=O)c5cc(NC(=O)c6cc(NC(=O)CCNC(=O)c7cc(NC(=O)c8cc(NC(=O)[C@H](N)CCNC(=O)c9cc(NC(=O)c%10cc(NC(=O)CCNC(=O)c%11nc(NC(=O)c%12cc(NC(=O)c%13cc(NC(=O)CCNC(=O)c%14cc(NC(=O)c%15cc(NC(=O)c%16nccn%16C)cn%15C)cn%14C)cn%13C)cn%12C)cn%11C)cn%10C)cn9C)cn8C)cn7C)cn6C)cn5C)cn4C)cn3C)cn2C)cn1C [Polyamide 1066, ImPPβPPIβPPγNH2PPβPPPβPPPβDp] | 0.1 to 1 |  | 0.1 to 1 |  | 0.1 to 1 | 
CN(CCCN)CCCNC(=O)CCNC(=O)c1cc(NC(=O)c2cc(NC(=O)c3cc(NC(=O)CCNC(=O)c4cc(NC(=O)c5cc(NC(=O)c6cc(NC(=O)CCNC(=O)c7cc(NC(=O)c8cc(NC(=O)[C@H](N)CCNC(=O)c9cc(NC(=O)c%10cc(NC(=O)CCNC(=O)c%11nc(NC(=O)c%12cc(NC(=O)c%13cc(NC(=O)CCNC(=O)c%14cc(NC(=O)c%15cc(NC(=O)c%16nccn%16C)cn%15C)cn%14C)cn%13C)cn%12C)cn%11C)cn%10C)cn9C)cn8C)cn7C)cn6C)cn5C)cn4C)cn3C)cn2C)cn1C [Polyamide 1067, ImPPβPPIβPPγNH2PPβPPPβPPPβTa] | 0.1 to 1 |  | 0.1 to 1 |  | 0.1 to 1 | 
CC(=O)N[C@H](CCNC(=O)c1cc(NC(=O)c2cc(NC(=O)CCNC(=O)c3nc(NC(=O)c4cc(NC(=O)c5cc(NC(=O)CCNC(=O)c6cc(NC(=O)c7cc(NC(=O)c8nccn8C)cn7C)cn6C)cn5C)cn4C)cn3C)cn2C)cn1C)C(=O)Nc1cc(C(=O)Nc2cc(C(=O)NCCC(=O)Nc3cc(C(=O)Nc4cc(C(=O)Nc5cc(C(=O)NCCC(=O)Nc6cc(C(=O)Nc7cc(C(=O)Nc8cc(C(=O)NCCC(=O)NCCCN(C)C)n(C)c8)n(C)c7)n(C)c6)n(C)c5)n(C)c4)n(C)c3)n(C)c2)n(C)c1 [Polyamide 1068, ImPPβPPIβPPγNHAcPPβPPPβPPPβDp] | 0.1 to 1 |  | 0.1 to 1 |  | 0.1 to 1 | 
CN(CCCN)CCCNC(=O)c1cc(NC(=O)c2cc(NC(=O)c3cc(NC(=O)c4cc(NC(=O)c5cc(NC(=O)CCNC(=O)c6cc(NC(=O)c7cc(NC(=O)CCCNC(=O)c8cc(NC(=O)c9cc(NC(=O)c%10cc(NC(=O)CCNC(=O)c%11cc(NC(=O)c%12cc(NC(=O)c%13nccn%13C)cn%12C)cn%11C)cn%10C)cn9C)cn8C)cn7C)cn6C)cn5C)cn4C)cn3C)cn2C)cn1C [Polyamide 1069, ImPPβPPPγPPβPPPPPTa] | ≥ 1 |  | 0.1 to 1 |  | 0.1 to 1 | 
Cn1cc(NC(=O)c2cc(NC(=O)c3cc(NC=O)cn3C)cn2C)cc1C(=O)NCCC(=N)N [distamycin A, reference compound] |  | only effective against HPV DNA at high concentrations |  |  |  | also affect cell viability
ImPPPβPPβPPPγNH2PPPβPPPβPPPβDp [Polyamide 1003] | 0.1 to 1 |  | 0.1 to 1 |  | 0.1 to 1 | 
ImPPPβPPβPPPγPPPβPPPβPPPβDp [Polyamide 1004] | ≤ 0.1 |  | 0.1 to 1 | nearly complete elimination of detectable viral DNA | 0.1 to 1 | 
ImPPβPPIβPPγPPβPPPβPPPPTa [Polyamide 1070] | 0.1 to 1 |  | 0.1 to 1 |  | 0.1 to 1 | 
ImPPβPPPγNH2PPβPPPPβDp [Polyamide 1024] | ≥ 1 |  | > 1 |  | 0.1 to 1 | 
